According to patent publication US20240101584A1, “TARGETED DELIVERY OF 1,2,4,5 TETRAOXANE COMPOUNDS AND THEIR USES” (Westlake University, priority 2021, published 2024):
“Also recorded” adds a separate entry of the source. Like-named read-outs stand apart in the source and are kept apart here.

Legend:
[1] = test system: MDA-MB-231 xenograft tumors; test: Mouse xenograft breast tumors (MDA-MB-231); format: in vivo, Nude mice; conditions: mouse, in vivo
Experimental: FIG. 12A is a graph showing the tumor volume of xenograft tumors versus time after s.c. injection of DMSO, PTX, compound 37b, or compound 48. Nude mice were injected s.c. with MDA-MB-231 cells (10^6) and randomly allocated to one of the six treatment groups (n=5): (i) DMSO, (ii) Paclitaxel (PTX), 5 mg/kg, (iii) compound 37b, 5 mg/kg, (iv) compound 37b, 10 mg/kg, (v) compound 48, 5 mg/kg, or (vi) compound 48, 10 mg/kg. When control animals (DMSO) began to appear tumor ulceration (25 days), all animals in the experiment were sacrificed and photographed.
FIG. 12B are photographs of the tumor from sacrificed animals of different treatment groups after 25 days. FIG. 12C is a graph showing the tumor weight of xenograft tumors versus time after s.c. injection of DMSO, PTX, compound 37b, or compound 48. Data are shown as mean±SEM. * P≤0.05 versus DMSO group. FIG. 12D are photographs showing the morphological observation of mice tissue treated with DMSO, paclitaxel, compound 37b, or compound 48 with H&E staining on heart, liver, kidney, lungs, and spleen tissues (200×).

MDCK cells = test: MTT viability assay, MDCK cells; format: cell-based, dog; conditions: 48 h incubation, mean, n = 3, read-out: IC50 against MDCK cells
Experimental: (§1) The anticancer activities of the exemplary compounds listed in Example 1 were tested against human cervix Hela cells, mammary breast cancer MDA-MB-231 cells, human hepatocellular HepG2 cells, human colorectal HCT116 cells, mammary ductal T47D cells, non-cancerous NIH3T3 cells, dog's kidney MDCK cells, and mouse brain bEnd.3 cells, respectively.

HEK293 cells = test: MTT viability assay, HEK293 cells; format: cell-based; conditions: mean, n = 3, read-out: IC50 against HEK293 cells
MDA-MB-231 cells = test: MTT viability assay, MDA-MB-231 cells; format: cell-based; conditions: for selectivity index (IC50 of NIH3T3 divided by IC50 on MDA-MB-231): Table 12b, value in bracket
Experimental: as §1

HepG2 cells = test: MTT viability assay, HepG2 cells; format: cell-based, human; conditions: MTT, 48 h incubation, mean, n = 3, read-out: IC50 against HepG2 cells
Experimental: as §1

Hela cells = test: MTT viability assay, Hela cells; format: cell-based, human; conditions: 48 h incubation, mean, n = 3, read-out: IC50 against Hela cells
Experimental: as §1

bEnd.3 cells = test: MTT viability assay, bEnd.3 cells; format: cell-based, mouse; conditions: mean, n = 3, read-out: IC50 against bEnd.3 cells
Experimental: as §1

NIH3T3 cells = test: MTT viability assay, non-cancerous NIH3T3 cells; format: cell-based
Experimental: as §1

HCT116 cells = test: MTT viability assay, HCT116 cells; format: cell-based, human; conditions: MTT, 48 h incubation, mean, n = 3, read-out: IC50 against HCT116 cells
Experimental: as §1

T47D cells = test: MTT viability assay, T47D cells; format: cell-based; conditions: for selectivity index (IC50 of NIH3T3 divided by IC50 on T47D): value in bracket
Experimental: as §1

HeyA8 cells = test: CellTiter-Glo viability, adherent HeyA8 ovarian cancer cells; format: cell-based
HEYA8 CSCs = test: CellTiter-Glo viability, HeyA8 cancer stem cells (spheres); format: cell-based; conditions: 5 μM of erastin, 50 μM of artesunate; RSL3 single dose
[2] = test system: lipid ROS in MDA-MB-231 cells; test: C11-BODIPY lipid ROS detection in MDA-MB-231 cells; format: cell-based; conditions: 48 5 μM, 37b 1 μM, RSL3 0.5 μM; 6 h incubation
Experimental: FIG. 11 is a bar graph showing the detection of lipid ROS with compound 48 (5 μM), compound 37b (1 μM), or RSL3 (0.5 μM) by BODIPY 581/591 C11 after 6 h incubation in MDA-MB-231 cells. **P≤0.01 versus DMSO group. Data are plotted as the mean±SD, n=3 biologically independent samples. All P values were determined using two-tailed Student's t-test.
Since lipid peroxidation is the evidence about ferroptosis, C11-BODIPY probe is used to validate the lipid ROS generated by tetraoxanes. It is a ratiometric membrane-targeted probe which changes the emission from 590 nm to 510 nm upon the detection of lipid ROS. Here, MDA-MB-231 cells were treated with 48, 37b and RSL3, respectively. The lipid ROS levels were quantified by flow cytometry. Untreated group gave weak signal in FL1 channel (FIG. 11).

[3] = Homo sapiens, HEK293, 48 h incubation
[4] = Homo sapiens, MDA-MB-231, 48 h, MTT, 48 h incubation, mean, n = 3, read-out: IC50 against MDA-MB-231 cells
[5] = Mus musculus, BEND3, 48 h incubation
[6] = Mus musculus, NIH3T3, MTT, 48 h incubation, mean, n = 3, read-out: IC50 against NIH3T3 cells
[7] = Homo sapiens, T47D, MTT, 48 h incubation, mean, n = 3, read-out: IC50 against T47D cells
[8] = MTT, 48 h incubation, mean, n = 3, read-out: IC50 against NIH3T3 cells
[9] = MTT, 48 h incubation, mean, n = 3, read-out: IC50 against MDA-MB-231 cells
[10] = Mus musculus, NIH3T3, Table 12b, read-out: IC50 NIH3T3
[11] = Homo sapiens, T47D, Table 12b, read-out: IC50 T47D
[12] = Homo sapiens, MDA-MB-231, Table 12b, read-out: IC50 MDA-MB-231

## CC(C)(C)C1CCC2(CC1)OOC1(CCC(OC(=O)Oc3ccc([N+](=O)[O-])cc3)CC1)OO2 (stereo not shown) [Compound 37c, 12-(tert-butyl)-7,8,15,16-tetraoxadispiro[5.2.59.26]hexadecan-3-yl(4-nitrophenyl) carbonate]
[1]
  abnormal behavior or weight loss during treatment period: no abnormal behavior or weight loss

## CN(C)CCCNC(=O)OC1CCC2(CC1)OOC1(OO2)C2CC3CC(C2)CC1C3 (stereo not shown) [Compound 30a, (1r,3r,5r,7r)-dispiro[adamantane-2,3′-[1,2,4,5]tetraoxane-6′,1″-cyclohexan]-4″-yl(3-(dimethylamino)propyl)carbamate]
MDCK cells; Canis lupus familiaris, MDCK
  IC50: 42.8 µM
HEK293 cells; [3]
  IC50: 2.5 µM
MDA-MB-231 cells; [4]
  IC50: 14.4 µM

## CC(C)(C)C1CCC2(CC1)OOC1(CCC(O)CC1)OO2 (stereo not shown) [Compound 37, 12-(tert-butyl)-7,8,15,16-tetraoxadispiro[5.2.59.26]hexadecan-3-ol]
HepG2 cells; Homo sapiens, HepG2
  IC50: 4.8 µM
MDCK cells; Canis lupus familiaris, MDCK
  IC50: > 50 µM
Hela cells; Homo sapiens, HeLa
  IC50: 15.1 µM
bEnd.3 cells; [5]
  IC50: > 100 µM
NIH3T3 cells; [6]
  IC50: 7.1 µM
HCT116 cells; Homo sapiens, HCT-116
  IC50: 14.4 µM
T47D cells; [7]
  IC50: 6.1 µM
HEK293 cells; [3]
  IC50: 5.8 µM
MDA-MB-231 cells; [4]
  IC50: 7.4 µM

## O=C(NCCC[P+](c1ccccc1)(c1ccccc1)c1ccccc1)OC1CCC2(CC1)OOC1(OO2)C2CC3CC(C2)CC1C3 (stereo not shown) [Compound 30b, (3-(((((1r,3r,5r,7r)-dispiro[adamantane-2,3′-[1,2,4,5]tetraoxane-6′,1″-cyclohexan]-4″-yl)oxy)carbonyl)amino)propyl)triphenylphosphonium bromide]
HepG2 cells
  IC50: 1.2 µM
MDCK cells
  IC50: 5.8 µM
Hela cells
  IC50: 2.4 µM
NIH3T3 cells; [8]
  IC50: 5.8 µM
HCT116 cells
  IC50: 1.4 µM
HEK293 cells; 48 h incubation
  IC50: 1 µM
MDA-MB-231 cells; [9]
  IC50: 0.53 µM

## CN(CCCNC(=O)OC1CCC2(CC1)OOC1(CCC(C(C)(C)C)CC1)OO2)Cc1ccccc1 (stereo not shown) [Compound 37e, 12-(tert-butyl)-7,8,15,16-tetraoxadispiro[5.2.59.26]hexadecan-3-yl(3-(benzyl(methyl)amino)propyl)carbamate]
MDCK cells; Canis lupus familiaris, MDCK
  IC50: 19.3 µM
Hela cells; Homo sapiens, HeLa
  IC50: 1.7 µM
NIH3T3 cells; [6]
  IC50: 1.9 µM
T47D cells; [7]
  IC50: 1.2 µM
MDA-MB-231 cells; [4]
  IC50: 1.7 µM

## CC(C)(C)C1CCC2(CC1)OOC1(CCC(OC(=O)N3CCNCC3)CC1)OO2 (stereo not shown) [Compound 37f, 12-(tert-butyl)-7,8,15,16-tetraoxadispiro[5.2.59.26]hexadecan-3-yl piperazine-1-carboxylate]
MDCK cells; Canis lupus familiaris, MDCK
  IC50: 12.4 µM
Hela cells; Homo sapiens, HeLa
  IC50: 3.1 µM
NIH3T3 cells; [6]
  IC50: 11.6 µM
NIH3T3 cells; [10]
  IC50: 11.6 ± 2.4 µM
T47D cells; [7]
  IC50: 1.3 µM
T47D cells; [11]
  IC50: 1.3 ± 0.6 µM
T47D cells; Table 12b
  selectivity index (IC50 of NIH3T3 divided by IC50 on T47D): (>8.9)
MDA-MB-231 cells; [4]
  IC50: < 4 µM
MDA-MB-231 cells; [12]
  IC50: 2.9 ± 0.8 µM
MDA-MB-231 cells
  selectivity index (IC50 of NIH3T3 divided by IC50 on MDA-MB-231): (>4)

## C[C@H]1[C@H](OC(=O)CCC(=O)O)O[C@@H]2O[C@@]3(C)CC[C@H]4[C@H](C)CC[C@@H]1[C@@]24OO3 [Artesunate, reference compound]
HeyA8 cells; high concentration
  cell death of adherent HEYA8 cells: ~50%
HEYA8 CSCs
  cytotoxic effect on HEYA8 CSCs at single dose: did not show any cytotoxic effect; also recorded: almost insensitive
NIH3T3 cells; [6]
  IC50: 17.4 µM
MDA-MB-231 cells; [4]
  IC50: 20.3 µM

## CN(C)CCCNC(=O)OC1CCC2(CC1)OOC1(CCC(C(C)(C)C)CC1)OO2 (stereo not shown) [Compound 37a, 12-(tert-butyl)-7,8,15,16-tetraoxadispiro[5.2.59.26]hexadecan-3-yl(3-(dimethylamino)propyl)carbamate]
HepG2 cells; Homo sapiens, HepG2
  IC50: 2 µM
MDCK cells; Canis lupus familiaris, MDCK
  IC50: 23.7 µM
Hela cells; Homo sapiens, HeLa
  IC50: 3.9 µM
bEnd.3 cells; [5]
  IC50: 10.9 µM
NIH3T3 cells; [6]
  IC50: 1.7 µM
HCT116 cells; Homo sapiens, HCT-116
  IC50: 4.6 µM
T47D cells; [7]
  IC50: 2.2 µM
HEK293 cells; [3]
  IC50: 0.8 µM
MDA-MB-231 cells; [4]
  IC50: 2 µM

## COC(=O)c1ccc([C@@H]2c3[nH]c4ccccc4c3C[C@@H](C(=O)OC)N2C(=O)CCl)cc1 [RSL3, reference compound]
[2]
  lipid ROS (BODIPY 581/591 C11, FL1, flow cytometry): fluorescence enhancement in FL1 was observed
HeyA8 cells; 5 μM
  elimination of adherent HEYA8 cells: eliminate the majority of adherent HEYA8 cells
NIH3T3 cells
  selectivity between non-cancerous cells and cancer cells: more cytotoxic to non-cancerous cells than cancer cells
NIH3T3 cells; [8]
  IC50: 0.028 µM
NIH3T3 cells; text b507, read-out: IC50 on NIH3T3 cells
  IC50: 0.0283 ± 0.0086 µM
MDA-MB-231 cells; [9]
  IC50: 0.041 µM

## CC1=CC(=O)C(C(C)(C)CC(=O)N2CCN(C(=O)OC3CCC4(CC3)OOC3(CCC(C(C)(C)C)CC3)OO4)CC2)=C(C)C1=O (stereo not shown) [Compound 37g, 12-(tert-butyl)-7,8,15,16-tetraoxadispiro[5.2.59.26]hexadecan-3-yl 4-(3-(2,4-dimethyl-3,6-dioxocyclohexa-1,4-dien-1-yl)-3-methylbutanoyl)piperazine-1-carboxylate]
MDCK cells; Canis lupus familiaris, MDCK
  IC50: 22.3 µM
Hela cells; Homo sapiens, HeLa
  IC50: 11.5 µM
NIH3T3 cells; [6]
  IC50: 26.6 µM
NIH3T3 cells; [10]
  IC50: 26.6 ± 2.6 µM
T47D cells; [7]
  IC50: 3.1 µM
T47D cells; [11]
  IC50: 3.1 ± 0.7 µM
T47D cells; Table 12b
  selectivity index (IC50 of NIH3T3 divided by IC50 on T47D): (>8.5)
MDA-MB-231 cells; [4]
  IC50: 11 µM
MDA-MB-231 cells; [12]
  IC50: 11 ± 0.9 µM
MDA-MB-231 cells
  selectivity index (IC50 of NIH3T3 divided by IC50 on MDA-MB-231): (>2.4)

## O=C(CC1CCC2(CC1)OOC1(OO2)C2CC3CC(C2)CC1C3)NCCC[P+](c1ccccc1)(c1ccccc1)c1ccccc1 (stereo not shown) [Compound 6b, (3-(2-((1r,3r,5r,7r)-dispiro[adamantane-2,3′-[1,2,4,5]tetraoxane-6′,1″-cyclohexan]-4″-yl)acetamido)propyl)triphenylphosphonium bromide]
MDCK cells
  IC50: 18.1 µM
Hela cells
  IC50: 2.2 µM
bEnd.3 cells; 48 h incubation
  IC50: 12.3 µM
T47D cells; MTT, 48 h incubation, mean, n = 3, read-out: IC50 against T47D cells
  IC50: 4.4 µM
HEK293 cells; 48 h incubation
  IC50: 1.6 µM
MDA-MB-231 cells; [9]
  IC50: 2.6 µM

## CCOc1ccccc1-n1c(C(C)N2CCN(C(=O)COc3ccc(Cl)cc3)CC2)nc2ccccc2c1=O (stereo not shown) [Erastin, reference compound]
HEYA8 CSCs
  cytotoxic effect on HEYA8 CSCs at single dose: did not show any cytotoxic effect; also recorded: almost insensitive
NIH3T3 cells; [6]
  IC50: 0.29 µM
MDA-MB-231 cells; [4]
  IC50: 1.3 µM
